The results in this text go back to patent US20060069132A1, “Azolecarboxamide herbicides” (priority 2004, published 2006).

One experiment has as its system velvetleaf. The experiment can be described thus: Test C pre-/postemergence herbicide test. The following applies: for Plant response rating (0 = no effect, 100 = complete control), Velvetleaf: 125 g ai/ha. In kind it is in vivo, Abutilon theophrasti. The method in brief:
(§1)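 Pre/post spray; non-phytotoxic solvent + surfactant. Post-timing 1–4 leaves, 2–18 cm. Read-out: visual % control vs untreated, day 12–14, greenhouse.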

Experiment [1] has as its system smallflower umbrella sedge. The experiment can be described thus: Test C flooded paddy test. Format: in vivo, Cyperus difformis.
The test system of the next experiment is morningglory. The experiment can be described thus: Test C pre-/postemergence herbicide test. Format: in vivo, Ipomoea coccinea. Also on record: key to Plant response rating, Morningglory: 0 = no effect, 100 = complete control. The gist of the method:
as §1

The subject of a further experiment is johnsongrass. The experiment can be described thus: Test C pre-/postemergence herbicide test. Format: in vivo, Sorghum halepense. The gist of the method:
as §1

For another experiment, the system named is lambsquarters. The experiment can be described thus: Test C pre-/postemergence herbicide test. In kind it is in vivo, Chenopodium album. The method in brief:
as §1

Another experiment concerns barnyardgrass. The experiment can be described thus: Test C flooded paddy test. Format: in vivo, Echinochloa crus-galli. The method in brief: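 Ratings (0 = no effect, 100 = complete control) come from visual comparison with untreated plants after 12 to 14 days in the greenhouse. Treatment was postemergence at the 1- to 4-leaf stage (2–18 cm), or at the 2-leaf stage for the flooded paddy barnyardgrass.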

The mark [2] stands for this setting: 62 g ai/ha, preemergence, scale 0 to 100.
The mark [3] stands for this setting: 500 g ai/ha, scale 0 to 100 (0 no effect, 100 complete control), visual, 12 to 14 days, preemergence.
Setting [4] is: 125 g ai/ha, scale 0 to 100 (0 no effect, 100 complete control).
[5] abbreviates: 250 g ai/ha, scale of 0 to 100, 0 is no effect, 100 is complete control.
Where [6] appears, read: 500 g ai/ha, visual rating after 12 to 14 days, scale 0 to 100 (0 no effect, 100 complete control).
Where [7] appears, read: 250 g ai/ha, scale 0-100, preemergence.
[8] abbreviates: 62 g ai/ha, scale 0 to 100 (0 no effect, 100 complete control).

Turning to `CCNC(=O)c1ccc(F)c(NC(=O)C2CN(C(C)(C)C)N=C2CC)c1` (stereo not drawn) [Compound 336, 1-(1,1-dimethylethyl)-3-ethyl-N-[5-[(ethylamino)carbonyl]-2-fluorophenyl]-4,5-dihydro-1H-pyrazole-4-carboxamide], the pest or weed control at 62 g/ha in the experiment with velvetleaf (Abutilon theophrasti, pre-emergence, 62 g ai/ha, preemergence, scale 0 to 100, read-out: Plant response rating, Velvetleaf) stood at 5%; in experiment [1] (Cyperus difformis, 62 g ai/ha, scale 0 to 100, read-out: Sedge, Umbrella plant response rating), 25%; in the experiment on morningglory (Ipomoea, pre-emergence, 62 g ai/ha, preemergence, scale 0 to 100, read-out: Plant response rating, Morningglory) it was 5%; with johnsongrass (Sorghum halepense, pre-emergence, 62 g ai/ha, preemergence, scale 0 to 100, read-out: Plant response rating, Johnsongrass) it was 80%; in the experiment with lambsquarters (Chenopodium album, pre-emergence, 62 g ai/ha, preemergence, scale 0 to 100, read-out: Plant response rating, Lambsquarters), 100%; with barnyardgrass (Echinochloa crus-galli, 62 g ai/ha, scale 0 to 100 (0 no effect, 100 complete control), read-out: Barnyardgrass plant response rating) it was 0%. In addition, the pest or weed control at 250 g/ha in the experiment on velvetleaf (Abutilon theophrasti, pre-emergence, 250 g ai/ha, scale 0-100, read-out: Plant response rating, Velvetleaf) was found to be 100%; in experiment [1] (Cyperus difformis, 250 g ai/ha, scale of 0 to 100, 0 is no effect, 100 is complete control, read-out: Sedge, Umbrella plant response rating), 85%; in the experiment with morningglory (Ipomoea, pre-emergence, 250 g ai/ha, scale 0-100, read-out: Plant response rating, Morningglory), 100%; with johnsongrass (Sorghum halepense, pre-emergence, 250 g ai/ha, scale 0-100, read-out: Plant response rating, Johnsongrass), 100%; with lambsquarters (Chenopodium album, pre-emergence, 250 g ai/ha, scale 0-100, read-out: Plant response rating, Lambsquarters), 100%; with barnyardgrass (Echinochloa crus-galli, 250 g ai/ha, scale of 0 to 100, 0 is no effect, 100 is complete control, read-out: Barnyardgrass plant response rating), 60%. Besides, the pest or weed control at 500 g/ha was determined as 100% in the experiment on velvetleaf (Abutilon theophrasti, pre-emergence, 500 g ai/ha, scale 0 to 100 (0 no effect, 100 complete control), visual, 12 to 14 days, read-out: Plant response rating, Velvetleaf); 90% in experiment [1] (Cyperus difformis, 500 g ai/ha, visual rating after 12 to 14 days, scale 0 to 100 (0 no effect, 100 complete control), read-out: Plant response rating, Sedge, Umbrella); 100% in the experiment on morningglory (Ipomoea, pre-emergence, 500 g ai/ha, scale 0 to 100 (0 no effect, 100 complete control), visual, 12 to 14 days, read-out: Plant response rating, Morningglory); 100% in the experiment with johnsongrass (Sorghum halepense, pre-emergence, 500 g ai/ha, scale 0 to 100 (0 no effect, 100 complete control), visual, 12 to 14 days, read-out: Plant response rating, Johnsongrass); 100% with lambsquarters (Chenopodium album, pre-emergence, 500 g ai/ha, scale 0 to 100 (0 no effect, 100 complete control), visual, 12 to 14 days, read-out: Plant response rating, Lambsquarters); 80% with barnyardgrass (Echinochloa crus-galli, 500 g ai/ha, visual rating after 12 to 14 days, scale 0 to 100 (0 no effect, 100 complete control), read-out: Plant response rating, Barnyardgrass). In addition, the pest or weed control at 125 g/ha in experiment [1] (Cyperus difformis, 125 g ai/ha, scale 0 to 100 (0 no effect, 100 complete control), read-out: Sedge, Umbrella plant response rating) was found to be 80%; in the experiment with morningglory (Ipomoea, pre-emergence, 125 g ai/ha, scale 0 (no effect) to 100 (complete control), visual, 12 to 14 days, read-out: Plant response rating, Morningglory) it was 70%; in the experiment on johnsongrass (Sorghum halepense, pre-emergence, 125 g ai/ha, scale 0 (no effect) to 100 (complete control), visual, 12 to 14 days, read-out: Plant response rating, Johnsongrass), 95%; with lambsquarters (Chenopodium album, pre-emergence, 125 g ai/ha, scale 0 (no effect) to 100 (complete control), visual, 12 to 14 days, read-out: Plant response rating, Lambsquarters) it was 100%; in the experiment with barnyardgrass (Echinochloa crus-galli, 125 g ai/ha, scale 0 to 100 (0 no effect, 100 complete control), read-out: Barnyardgrass plant response rating) it was 0%.
As for `CCNC(=O)c1ccc(F)c(N(C(C)=O)C(=O)c2cc(C(C)(C)C)nn2CC)c1` [Compound 399], the “Plant response rating, Velvetleaf” value is 95 in the experiment with velvetleaf (setting [2]) and 100 in the experiment on velvetleaf (setting [3]). Moreover, the “Plant response rating (0 = no effect, 100 = complete control), Velvetleaf” value with velvetleaf (preemergence) is given as 100. Also, the “Sedge, Umbrella plant response rating” value in experiment [1] (62 g ai/ha, scale 0 to 100) worked out at 65; in experiment [1] (setting [4]), 70; in experiment [1] (setting [5]) it was 85. In addition, in experiment [1] (setting [6]), the “Plant response rating, Sedge, Umbrella” value amounted to 85. For the same compound, the “Plant response rating, Morningglory” value with morningglory (setting [2]) amounted to 15; with morningglory (setting [3]), 75. In the experiment on morningglory (125 g ai/ha, preemergence), the “Plant response rating (0 = no effect, 100 = complete control), Morningglory” value worked out at 25. Besides, the “Plant response rating, Johnsongrass” value with johnsongrass (setting [2]) amounted to 95; with johnsongrass (setting [7]) it was 100; in the experiment on johnsongrass (setting [3]), 100. Further, the “Plant response rating (0 = no effect, 100 = complete control), Johnsongrass” value in the experiment with johnsongrass (125 g ai/ha, preemergence) was 100. For the same compound, the “Plant response rating, Lambsquarters” value with lambsquarters (setting [2]), in the experiment with lambsquarters (setting [7]) and in the experiment with lambsquarters (setting [3]) was 100 throughout. The “Plant response rating (0 = no effect, 100 = complete control), Lambsquarters” value in the experiment with lambsquarters (125 g ai/ha, preemergence) was 100. In addition, the “Barnyardgrass plant response rating” value was determined as 50 in the experiment with barnyardgrass (setting [8]), 65 in the experiment with barnyardgrass (setting [4]) and 85 in the experiment with barnyardgrass (setting [5]). In the experiment with barnyardgrass (setting [6]), the “Plant response rating, Barnyardgrass” value is recorded as 90.
With `CCC1=NN(C(C)(C)C)CC1C(=O)Nc1cc(C(=O)N(C)CC)ccc1F` (racemic) [Compound 342], the “Plant response rating, Velvetleaf” value worked out at 50 in the experiment on velvetleaf (setting [2]), 100 in the experiment on velvetleaf (setting [7]) and 100 with velvetleaf (setting [3]). For the same compound, the “Plant response rating (0 = no effect, 100 = complete control), Velvetleaf” value with velvetleaf (preemergence) came to 60. For the same compound, the “Sedge, Umbrella plant response rating” value is on record as 40 in experiment [1] (62 g ai/ha, scale 0 to 100); 50 in experiment [1] (setting [4]); 70 in experiment [1] (setting [5]). Further, the “Plant response rating, Sedge, Umbrella” value in experiment [1] (setting [6]) was 80. Besides, the “Plant response rating, Morningglory” value with morningglory (setting [2]) worked out at 0; with morningglory (setting [7]) it was 70; in the experiment with morningglory (setting [3]), 100. Also, the “Plant response rating (0 = no effect, 100 = complete control), Morningglory” value with morningglory (125 g ai/ha, preemergence) amounted to 5. Moreover, the “Plant response rating, Johnsongrass” value was found to be 55 with johnsongrass (setting [2]), 100 in the experiment on johnsongrass (setting [7]) and 100 in the experiment on johnsongrass (setting [3]). Further, the “Plant response rating (0 = no effect, 100 = complete control), Johnsongrass” value in the experiment with johnsongrass (125 g ai/ha, preemergence) is listed as 100. Also, the “Plant response rating, Lambsquarters” value in the experiment on lambsquarters (setting [2]) is recorded as 70; with lambsquarters (setting [7]), 100; in the experiment with lambsquarters (setting [3]) it was 100. Also, in the experiment with lambsquarters (125 g ai/ha, preemergence), the “Plant response rating (0 = no effect, 100 = complete control), Lambsquarters” value turned out to be 90. Moreover, the “Barnyardgrass plant response rating” value in the experiment with barnyardgrass (setting [8]) is given as 20; in the experiment with barnyardgrass (setting [4]), 20; in the experiment with barnyardgrass (setting [5]), 50. Further, in the experiment on barnyardgrass (setting [6]), the “Plant response rating, Barnyardgrass” value came to 60.
As to `CCC1=NN(C(C)(C)C)CC1C(=O)Nc1cc(C(=O)N2CC=CC2)ccc1F` (racemic) [Compound 340], the “Plant response rating, Velvetleaf” value is 0 with velvetleaf (setting [2]), 95 with velvetleaf (setting [7]) and 100 in the experiment on velvetleaf (setting [3]). In the experiment on velvetleaf (preemergence), the “Plant response rating (0 = no effect, 100 = complete control), Velvetleaf” value is 60. Also, the “Sedge, Umbrella plant response rating” value in experiment [1] (62 g ai/ha, scale 0 to 100) was 50; in experiment [1] (setting [4]), 70; in experiment [1] (setting [5]), 70. The “Plant response rating, Sedge, Umbrella” value in experiment [1] (setting [6]) amounted to 90. Besides, the results for the “Plant response rating, Morningglory” value in the experiment with morningglory (setting [2]), in the experiment with morningglory (setting [7]) and in the experiment with morningglory (setting [3]) were 0, 10 and 50, respectively. Moreover, the “Plant response rating (0 = no effect, 100 = complete control), Morningglory” value in the experiment on morningglory (125 g ai/ha, preemergence) is given as 5. The “Plant response rating, Johnsongrass” value is 15 in the experiment on johnsongrass (setting [2]), 50 in the experiment with johnsongrass (setting [7]) and 90 in the experiment with johnsongrass (setting [3]). Besides, the “Plant response rating (0 = no effect, 100 = complete control), Johnsongrass” value in the experiment on johnsongrass (125 g ai/ha, preemergence) is reported as 50. Moreover, the “Plant response rating, Lambsquarters” value in the experiment on lambsquarters (setting [2]) stood at 70; with lambsquarters (setting [7]), 100; in the experiment on lambsquarters (setting [3]), 100. For the same compound, in the experiment with lambsquarters (125 g ai/ha, preemergence), the “Plant response rating (0 = no effect, 100 = complete control), Lambsquarters” value came out at 80. In addition, the “Barnyardgrass plant response rating” value was 20 with barnyardgrass (setting [8]), 50 in the experiment on barnyardgrass (setting [4]) and 60 with barnyardgrass (setting [5]). In addition, the “Plant response rating, Barnyardgrass” value with barnyardgrass (setting [6]) amounted to 70.
